Molecular target: T1, TRPV1 human (Homo sapiens, UniProt Q8NER1)
T1 construct: expressed in transfected cells; host or cells: CHO K1 cells
Test: Functional testing on the vanilloid receptor 1 (VR1/TRPV1): FLIPR Ca2+ influx assay, inhibition of capsaicin (CAP) stimulation
Assay type: cell-based
Details: ne = did not show any effect in this assay; pAG = partial agonist
Experimental: Furthermore, preference may be given to compounds according to the invention that cause a 50 per cent displacement of capsaicin, which is present at a concentration of 100 nM, in a FLIPR assay with CHO K1 cells which were transfected with the human VR1 gene at a concentration of less than 6,000 nM, preferably less than 5,000 nM, more preferably less that 3,000 nM or less than 1,000 nM and particularly preferably less than 300 nM, most particularly preferably less than 100 nM, even more preferably less than 75 nM, additionally preferably less than 50 nM, most preferably less than 10 nM.
In the process, the Ca^2+ influx is quantified in the FLIPR assay with the aid of a Ca^2+-sensitive dye (type Fluo-4, Molecular Probes Europe BV, Leiden, the Netherlands) in a fluorescent imaging plate reader (FLIPR, Molecular Devices, Sunnyvale, USA), as described hereinafter.
Functional testing carried out on the vanilloid receptor 1 (VRI/TRPV1 receptor) […]
The number of cells in the suspension is set to 3 x 10^5 per mL and 150 µL of this suspension are in each case introduced into a recess in the cell culture plates coated as described hereinbefore. In the incubator the plates are left for two to three days at 37°C, 5 vol.-% of CO2 and 95 % relative humidity. Subsequently, the cells are loaded with 2 µM of Fluo-4 and 0.01 vol.-% of Pluronic F127 (Molecular Probes Europe BV, Leiden, the Netherlands) in HBSS buffer for 30 min at 37°C, washed 3 times with HBSS buffer and after further incubation for 15 min at RT used for Ca^2+ measurement in a FLIPR assay. The Ca^2+-dependent fluorescence is in this case measured before and after the addition of substances (λex = 488 nm, λem = 540 nm). Quantification is carried out by measuring the highest fluorescence intensity (FC, fluorescence counts) over time.
The FLIPR protocol consists of 2 substance additions. First the compounds to be tested (10 µM) are pipetted onto the cells and the Ca^2+ influx is compared with the control (capsaicin 10 µM). This provides the result in % activation based on the Ca^2+ signal after the addition of 10 µM of capsaicin (CP). After 5 min incubation, 100 nM of capsaicin are applied and the Ca^2+ influx is also determined. Desensitising agonists and antagonists lead to suppression of the Ca^2+ influx. The % inhibition is calculated compared to the maximum achievable inhibition with 10 µM of capsazepine.
Triple analyses (n=3) are carried out and repeated in at least 3 independent experiments (N=4). Starting from the percentage displacement caused by different concentrations of the compounds to be tested of general formula I, IC50 inhibitory concentrations which cause a 50% displacement of capsaicin were calculated.
Ki values for the test substances were obtained by conversion by means of the Cheng-Prusoff equation (Cheng, Prusoff; Biochem. Pharmacol. 22, 3099-3108, 1973).

T1 sequence (Q8NER1 whole entry): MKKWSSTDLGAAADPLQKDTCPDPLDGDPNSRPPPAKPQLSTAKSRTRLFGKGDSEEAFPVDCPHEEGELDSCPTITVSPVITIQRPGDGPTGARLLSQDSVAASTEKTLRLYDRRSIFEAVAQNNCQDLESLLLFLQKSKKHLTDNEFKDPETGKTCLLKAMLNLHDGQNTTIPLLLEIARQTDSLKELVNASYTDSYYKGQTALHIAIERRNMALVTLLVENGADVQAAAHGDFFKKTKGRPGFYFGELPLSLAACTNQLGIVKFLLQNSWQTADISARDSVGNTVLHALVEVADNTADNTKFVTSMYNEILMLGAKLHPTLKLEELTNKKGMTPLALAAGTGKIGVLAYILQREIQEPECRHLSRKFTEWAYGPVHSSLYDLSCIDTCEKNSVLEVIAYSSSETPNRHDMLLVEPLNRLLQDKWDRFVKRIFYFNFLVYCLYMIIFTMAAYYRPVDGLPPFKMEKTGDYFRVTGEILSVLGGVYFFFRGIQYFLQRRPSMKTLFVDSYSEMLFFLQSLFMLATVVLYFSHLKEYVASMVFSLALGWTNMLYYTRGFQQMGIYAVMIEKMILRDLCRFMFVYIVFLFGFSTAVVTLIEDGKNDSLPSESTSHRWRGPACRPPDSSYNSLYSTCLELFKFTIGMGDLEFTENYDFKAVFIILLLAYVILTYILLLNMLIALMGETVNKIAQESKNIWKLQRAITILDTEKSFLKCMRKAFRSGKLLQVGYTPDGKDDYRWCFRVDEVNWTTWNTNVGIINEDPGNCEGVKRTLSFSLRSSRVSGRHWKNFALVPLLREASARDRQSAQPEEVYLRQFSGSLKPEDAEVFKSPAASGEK

TRPV1 human (f) CAP, result in words: ne
SMILES: CC1CCN(c2nc(C(F)(F)F)ccc2CNC(=O)Nc2nc3ccccc3[nH]2)CC1 [example compound 26, 1-(1H-benzo[d]imidazol-2-yl)-3-((2-(4-methylpiperidin-1-yl)-6-(trifluoromethyl)pyridin-3-yl)methyl)urea]
